Measurements: patent US12390435B2, “Electrophiles and electrophile pro-drugs as RAD51 inhibitors” (University of Pittsburgh—Of the Commonwealth System of …, priority 2018, dated 2025)
“Also recorded” adds a separate entry of the source.

What was measured:
MDA-MB-231 cells [1] = experiment: CellTiter-Glo relative growth (luminescent ATP); format: cell-based; conditions: for EC50 for growth inhibition, compared between compounds: ATP Celltiter Glo proliferation assay, n=3
Protocol: HEK 293T, MDA-MB-231, MDA-MB-468, Hs578T and BT-549 cells (American Type Culture Collection) were cultured at 37° C. with 5% CO2 in Dulbecco's modified Eagle's medium containing (DMEM) (Gibco) supplemented with 5% FBS (HyClone), 100 units/ml penicillin, […] streptomycin (Gibco), non-essential amino acids (Gibco) and 2 mM 1-glutamine (Gibco). Doxorubicin (Selleckchem), cisplatin (Sigma) or olaparib (Selleckchem) were dissolved in DMSO or DMF (cisplatin). […] Pure NO2-OA was diluted in DMSO and added to cells after solvation in assay media. Relative cell numbers were compared by measuring the luminescent signal generated by ATP using the CellTiter-Glo (Promega) assay. Cells were plated in a 96-well plate at 5,000 (MDA-MB-231) or 6,600 (BT549 or Hs578T) cells per well.
Data represent the mean±SEM from 3 independent experiments unless otherwise noted. A p value<0.05 was considered statistically significant. Non-linear curves were generated in GraphPad Prism 7.0 (GraphPad Software, La Jolla, CA, USA) for statistical analysis. EC50 values and standard error were calculated from three independent experiments utilizing a non-linear dose response variable slope model. Significance was tested by one-way ANOVA for multiple groups with Tukey posttest or by t-test when groups were less than three. RAD51 foci number was analyzed with ImageJ. Nuclear boundaries were individually identified in more than 50 cells per treatment group in three independent experiments.
The growth of BT-549 cells was not affected. […] MDA-MB-231 cells were plated in a 96 well plate and treated with talazoparib (0.01-75 μM) plus OA-NO2 or NDA-NO2 (0.2-12 μM) daily for 3 days. Growth inhibition (relative cell numbers) of MDA-MB-231 cells was determined by luminescent detection of ATP (CellTiter-Glo) (FIG. 1K).

MDA-MB 231 TNBC cells = experiment: Metabolism in MDA-MB-231 cells by HPLC-MSMS; format: in vitro ADME; conditions: for omega hydroxylation and carboxylation: 10 uM; for omega hydroxylation and carboxylation / cysteine adduct formation: cell media and cell homogenate
Protocol: FIG. 18. […] Growth inhibition was assessed using the ATP Celltiter Glo proliferation assay and compounds were used at different concentration to determine their EC50. CP-1 had the lowest EC50 followed by 7-NDA and 8-NDA. […] The different metabolic pathways of 7-NDA and 8-NDA have been characterized in MDA-MB-231 TNBC cells. MDA-MB 231 TNBC cells incorporate and metabolize 7-NDA and 8-NDA through beta oxidation (FIG. 19). Inactivation of the active 7-NDA and 8-NDA nitroalkene group is achieved through reduction to a nitroalkane (FIG. 20).
FIG. 19. […] Dinor 7-NDA corresponds to one beta-oxidation cycle while tetranor corresponds to two beta oxidation cycles. […] Formation of both Dinor and Tetranor 8-NDA are shown. Chromatograms correspond to the detection by HPLC-MSMS of the different compounds in negative ion mode using MRMs on a triple quadrupole mass spectrometer.
FIG. 20. […] Chromatograms correspond to the detection by HPLC-MSMS of the different compounds in negative ion mode using MRMs on a triple quadrupole mass spectrometer.
FIG. 21. […] Chromatograms correspond to the detection by HPLC-MSMS of the different using specific MRM transitions on a triple quadrupole mass spectrometer.
FIG. 22. […] Dicarboxylic acids of both 7-NDA and 8-NDA have been detected in cell media and cell homogenate from cell treated with 10 uM 7-NDA or 8-NDA. Chromatograms correspond to the detection by HPLC-MSMS of the different using specific MRM transitions on a triple quadrupole mass spectrometer.

IKKβ = experiment: TNFα-induced IKKβ phosphorylation, IκBα phosphorylation and degradation; format: cell-based
Protocol: All studies used two TNBC cell lines, MDA-MB-231 and MDA-MB-468. […] For IκBα degradation, cells were treated as described above and stimulated with 20 ng/mL TNFα for 10 min.
(§1) Western blotting was performed. 20-60 μg of total lysates per lane were loaded on 7%, 10%, or 12% SDS-PAGE and transferred onto nitrocellulose or polyvinylidene difluoride membranes (Bio-Rad). The membranes were probed with primary antibodies against caspase-3, multi-drug resistance protein-1 (MRP1), poly [ADP ribose] polymerase-1 (PARP-1), ubiquitin, RelA; cyclin D1, p21, caspase-9, MRP4, IKKβ, pIKKβ, IκBα, or pIκBα (Cell Signaling); caspase-8 (R&D Systems). Samples were normalized to β-actin (Sigma-Aldrich) or GAPDH (Trevigen).

MDA-MB-468 cells = experiment: Matrigel cell invasion assay; format: cell-based; conditions: NO2-OA/NO2-SA 5 μM, JSH-23 10 μM, TNFα 20 ng/mL, 24 hr
Protocol: Cells were then suspended in migration media and placed in the top well of invasion chambers (EMD Millipore). Chemoattractant (5% FBS) was placed in the lower chamber for 24 hr at 37° C. to attract invasive cells. Cells were then harvested and invasion rates were determined according to manufacturer's protocol. Three individual experiments were done, and statistical comparison among treatments was determined by one-way analysis of variance followed by Tukey post-test.

MDA-MB-231 cells [2] = experiment: Cell growth assay (FluoReporter dsDNA); format: cell-based; conditions: TNBC cell lines MDA-MB-231 and MDA-MB-468, 48 hr
Protocol: Cells were plated at a cell density of 5000 cells per well in 96-well plates. […] Cells were counted using the FluoReporter dsDNA quantitation kit (Molecular Probes) according to the manufacturer's instructions. Fluorescence was measured using a SpectraMax M2 plate reader (Molecular Devices). […] Three individual experiments were done (n=5/each), and statistical comparison between two cell lines across doses was determined by two-way analysis of variance followed by Tukey post-test.

[3] = tested on: MDA-MB-231 and MDA-MB-468 cells; experiment: FACS cell cycle analysis; format: cell-based; conditions: MCF-10A, MDA-MB-231 and MDA-MB-468 cells, 24 hr
Protocol: Adherent and nonadherent cells were collected, centrifuged at 2000×rpm for 10 min, washed with ice-cold phosphate-buffered saline, fixed with cold 70% ethanol at 4° C. for 30 mins, and stained with 50 μg/mL propidium iodide (Sigma-Aldrich). FACS analysis was performed at the University of Pittsburgh Department of Immunology Unified Flow Core Facility. Three individual experiments were done, and statistical comparisons among phases (G0/G1, S, and G2/M) were determined by one-way analysis of variance followed by Tukey post-test.

[4] = tested on: NF-κB transcriptional activity; experiment: NF-κB luciferase reporter; format: cell-based; conditions: MDA-MB-231 and MDA-MB-468 cells, 5 μM 2 hr then TNFα 20 ng/mL 4 hr
Protocol: Luciferase-chemiluminescence-based analysis of NF-κB transcriptional activity was performed. MDA-MB-231 and MDA-MB-468 cells (˜70% confluence) in 12-well plates were transiently transfected with a NF-κB-luciferase reporter plasmid (Stratagene, La Jolla, CA) with Lipofectamine 3000. […] Each transfection was performed in triplicate. Luciferase activity was measured using the Dual-luciferase assay kit (Promega). Relative light units (RLU) were measured using a 96-well plate luminometer, according to the manufacturer's instructions (Victor II, PerkinElmer Life Sciences). Protein concentration was determined using the BCA Assay (Thermo Fisher Scientific). Data represents the ratio of treated samples to controls in the context of mean RLU/protein content, +/−SD. Three individual experiments were done, and statistical significance was determined by Kruskal-Wallis test followed by Dunn's post-test with Bonferroni corrections for multiple comparisons.

[5] = tested on: RelA in MDA-MB-231 and MDA-MB-468 cells; experiment: RelA protein level and polyubiquitination; format: cell-based; conditions: 5 μM, 24 hr
Protocol: Lysates were clarified by centrifugation at 14,000×g for 10 min. Protein lysates (1 mg) were incubated with anti-RelA antibody and Protein G/A conjugated agarose beads (EMD Millipore, Bedford, MA) at 4° C., overnight. Immunoprecipitation fraction were obtained by centrifugation at 14,000×g for 1 min at RT and washed with lysis buffer three times. The immunoprecipitated RelA was resolved by 8% SDSPAGE gel, and transferred to nitrocellulose membrane (Bio-Rad) for immunoblotting probed with an anti-ubiquitin antibody (Santa Cruz Biotechnology). The blot was then stripped and probed with an anti-RelA antibody to assess amounts of RelA protein pull-down.
as §1

[6] = tested on: homologous recombination (DR-GFP, U2OS cells); experiment: DR-GFP HR reporter assay in U2OS cells; format: cell-based; conditions: FIG. 16B
Protocol: Measurements of NHEJ, HR, Alt-EJ and SSA assays were performed as previously described. HR activity was measured by counting GFP-positive cells by flow cytometry at the MWRI flow cytometry core using a BD LSRII (BD Biosciences). RAD51 overexpressing cells were generated by stable transfection of pLVX RAD51 IRES Neo and selection with geneticin (Invitrogen).
U2OS cells were prepared as above, but 5 h following compound treatment, cells were transferred into the Incucyte Zoom (Essen) live-cell imaging automated fluorescence microscope at 37° C. with 5% CO2. Cell confluence and green object count per mm2 were determined using Incucyte Zoom software. Green object count per field was normalized to cell confluency to correct for NO2—OA-induced effects on cell proliferation.
NO2-OA-dependent effects on HR DNA repair were further investigated by utilizing a DRGFP reporter assay. This analysis quantifies intracellular recombination of an integrated cDNA cassette of two tandem non-fluorescent GFP constructs following introduction of an I-SceI cleavage to the system by measuring the fluorescent GFP protein that is produced following successful recombination. […] A novel strategy was used to measure the kinetics of changes in HR in live cells by using automated fluorescence microscopy to track the emergence of GFP positive cells over time in monolayers, as opposed to making static measurements of detached cells using flow cytometry. […] This was indicated by an absence of changes in the number of GFP positive cells following I-SceI cleavage after 48 h by flow cytometric analysis or over 68 h by live-cell fluorescence microscopy (FIGS. 2C, 2D).

[7] = tested on: human high grade serous ovarian cancer cells; experiment: Cell growth/viability by luminescent ATP with PARP inhibitors; format: cell-based; conditions: with Olaparib or Talazoparib
Protocol: Cell growth/viability is determined from luminescent detection of cell ATP concentration.

CCCCCCCCCCC/C=C(\CCCCCC(=O)O)[N+](=O)[O-] [7-NDA, 7-NO2-nonadec-7-enoic acid]
EC50 for growth inhibition, compared between compounds (MDA-MB-231 cells [1]): more sensitive to 7-NDA and 8-NDA when compared to OA-NO2
IC50 compared with NO2-OA (MDA-MB-231 cells [1]; FIG. 12): lower IC50 compared NO2-OA
Combination index (CI), Chou-Talalay (MDA-MB-231 cells [1]; with talazoparib (0.01-75 μM), 0.2-12 μM, daily 3 days, CI<1 is synergistic): better combination indices; also recorded: better CI values compared to OA-NO2
formation of active nitroalkene beta-oxidation metabolites (dinor, tetranor) (MDA-MB 231 TNBC cells): does not result in the formation of active, nitroalkene containing metabolites
omega hydroxylation and carboxylation (MDA-MB 231 TNBC cells): omega hydroxylation and carboxylation
cysteine adduct formation (MDA-MB 231 TNBC cells): form cysteine adducts that are detected in cell media and cell homogenate

CCCCCCCCCCC/C(=C\CCCCCC(=O)O)[N+](=O)[O-] [8-NDA, 8-NO2-nonadec-7-enoic acid]
EC50 for growth inhibition, compared between compounds (MDA-MB-231 cells [1]): more sensitive to 7-NDA and 8-NDA when compared to OA-NO2
formation of active nitroalkene beta-oxidation metabolites (dinor, tetranor) (MDA-MB 231 TNBC cells): result in the active (structures having the reactive nitroalkene moiety) beta-oxidation products
omega hydroxylation and carboxylation (MDA-MB 231 TNBC cells): omega hydroxylation and carboxylation
cysteine adduct formation (MDA-MB 231 TNBC cells): form cysteine adducts that are detected in cell media and cell homogenate

Cc1ccc(S(=O)(=O)/C=C/C#N)cc1 [BAY11-7082, 3[(4-methylphenyl)sulfonyl]-(2E)-propenenitrile, reference compound]
TNFα-induced IKKβ phosphorylation (IKKβ; NO2-OA 5 μM or BAY11-7082 10 μM 2 hr, TNFα 20 ng/mL 5 min): diminished
degradation of IκBα following TNFα stimulation (IKKβ; TNFα 20 ng/mL, 10 min): inhibited the degradation of IκBβ
IκBα phosphorylation (IKKβ; with proteasome inhibitor MG-132 10 μM): decreased IκBβ phosphorylation

Cc1ccc(NCCCc2ccccc2)c(N)c1 [JSH-23, 4-Methyl-N1-(3-phenyl-propyl)-benzene-1,2-diamine]
TNFα-induced invasion (MDA-MB-468 cells): inhibition of MDA-MB-468 cell invasion

CCCCCCCCC(CCCCCCCCC(=O)O)[N+](=O)[O-] (stereo not drawn) [NO2—SA, 10-nitro-octadecanoic acid, reference compound]
TNBC cell growth (MDA-MB-231 cells [2]): did not affect TNBC cell growth
cell cycle populations and regulatory proteins [3]: did not affect cell cycle populations
TNFα-induced invasion (MDA-MB-468 cells): marginal effects
NF-κB-dependent transcription of luciferase [4]: no effect
RelA protein abundance [5]: no effect

CCCCCCCCC=CCCCCCCCC(=O)O [OA, octadec-9-enoic acid, reference compound]
EC50 for growth inhibition, compared between compounds (MDA-MB-231 cells [1]): did not induce any growth inhibition
NF-κB-dependent transcription of luciferase [4]: no effect

methyl-ethyl-4-nitro-oct-4-enedioate [CP-1]
EC50 for growth inhibition, compared between compounds (MDA-MB-231 cells [1]): lower EC50 than OA-NO2; also recorded: lowest EC50
inhibition of homologous recombination [6]: inhibition of homologous recombination
concentration of PARP inhibitor needed for 50% tumor cell killing [7]: lowers the concentration of the PARP inhibitors
